Data published in the supplement of paper PMC7224384.

How the values were obtained:
MDA-MB-453 [1] = experiment: drug sensitivity score (DSS), single agent (DSS (weighted AUC score)); higher = more sensitive (stronger viability decrease); extreme values may be limits of the assay; conditions: BLU9931 0 nM; 72 h
Outline: (§1)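 Each 384-well plate held compounds from the FIMM Oncology set, predispensed in singlicate at five 10-fold dilutions spanning a 10,000-fold range, and each well then received 2000 MDA-MB-453 cells in medium with or without an FGFR4 inhibitor at 100 nM final. Plates stayed at 37 °C, 5% CO2 for 72 h, after which cellular ATP was measured with CellTiterGlo 2.0. Readings were converted per plate into percent viability against control wells, and the drug sensitivity score was taken as a weighted area under a four-parameter logistic fit.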

MDA-MB-453 [2] = experiment: drug sensitivity score (DSS), in combination with BLU9931 (DSS (weighted AUC score)); higher = more sensitive (stronger viability decrease); extreme values may be limits of the assay; conditions: BLU9931 100 nM; 72 h
Outline: as §1

Row | Structure (SMILES) | drug sensitivity score (MDA-MB-453 [1]) | drug sensitivity score (MDA-MB-453 [2])
1 | C=CC(=O)N1CCC[C@@H](n2nc(-c3ccc(Oc4ccccc4)cc3)c3c(N)ncnc32)C1 [Ibrutinib] | 14.5 | 15.8
2 | C#Cc1cccc(Nc2ncnc3cc4c(cc23)OCCOCCOCCO4)c1 [Icotinib] | 1.8 | 1.9
3 | CC(=O)[C@]1(O)Cc2c(O)c3c(c(O)c2[C@@H](O[C@H]2C[C@H](N)[C@H](O)[C@H](C)O2)C1)C(=O)c1ccccc1C3=O [Idarubicin] | 5.9 | 6.4
4 | COc1cc(C(=O)O)ccc1NC(=O)[C@@H]1N[C@@H](CC(C)(C)C)[C@](C#N)(c2ccc(Cl)cc2F)[C@H]1c1cccc(Cl)c1F [Idasanutlin] | 1.1 | 0
5 | CC[C@H](Nc1ncnc2[nH]cnc12)c1nc2cccc(F)c2c(=O)n1-c1ccccc1 [Idelalisib] | 1.7 | 2
6 | Cc1ccc(NC(=O)c2ccc(CN3CCN(C)CC3)cc2)cc1Nc1nccc(-c2cccnc2)n1 [Imatinib] | 0.9 | 0.1
7 | CC(C)Cn1cnc2c(N)nc3ccccc3c21 [Imiquimod] | 0 | 0
8 | O=C(Nc1ccncc1)C(=O)c1cn(Cc2ccc(Cl)cc2)c2ccccc12 [Indibulin] | 9.1 | 5.3
9 | CCN1CCN(c2ccc(Nc3cc(N(C)C(=O)Nc4c(Cl)c(OC)cc(OC)c4Cl)ncn3)cc2)CC1 [Infigratinib] | 0 | 0
10 | CC(C)NC[C@@H](C(=O)N1CCN(c2ncnc3c2[C@H](C)C[C@H]3O)CC1)c1ccc(Cl)cc1 [Ipatasertib] | 11 | 12
11 | CCC(C)n1ncn(-c2ccc(N3CCN(c4ccc(OCC5COC(Cn6cncn6)(c6ccc(Cl)cc6Cl)O5)cc4)CC3)cc2)c1=O (centres undefined) [Itraconazole] | 2.9 | 1.5
12 | N#Cc1ccnc(N2C(=O)CC[C@H]2C(=O)N(c2cncc(F)c2)[C@H](C(=O)NC2CC(F)(F)C2)c2ccccc2Cl)c1 [Ivosidenib] | 0 | 0
13 | C/C(=C\c1csc(C)n1)[C@@H]1C[C@@H]2O[C@]2(C)CCC[C@H](C)[C@H](O)[C@@H](C)C(=O)C(C)(C)[C@@H](O)CC(=O)N1 [Ixabepilone] | 5.6 | 4.1
14 | CC(C)C[C@H](NC(=O)CNC(=O)c1cc(Cl)ccc1Cl)B(O)O [Ixazomib] | 9.4 | 7.4
15 | Nc1cc(COc2c(Cl)cc(C[C@H](N)C(=O)O)cc2Cl)c2oc(-c3ccccc3)nc2c1 [JPH203] | 3 | 1.4
16 | CC(C)NC(=O)COc1cccc(-c2nc(Nc3ccc4[nH]ncc4c3)c3ccccc3n2)c1 [KD025] | 5.6 | 6
17 | CS(=O)(=O)CCNCc1ccc(-c2ccc3ncnc(Nc4ccc(OCc5cccc(F)c5)c(Cl)c4)c3c2)o1 [Lapatinib] | 6.5 | 7
18 | O=C(Nc1cnn2ccc(N3CCC[C@@H]3c3cc(F)ccc3F)nc12)N1CC[C@H](O)C1 [Larotrectinib] | 0.4 | 0
19 | Oc1ccc2c(c1)CC[C@H](c1ccccc1)[C@@H]2c1ccc(OCCN2CCCC2)cc1 [Lasofoxifene] | 0.7 | 0.2

Row | Structure (SMILES) | drug sensitivity score (MDA-MB-453 [1]) | drug sensitivity score (MDA-MB-453 [2])
20 | Nc1cccc2c1CN(C1CCC(=O)NC1=O)C2=O (centres undefined) [Lenalidomide] | 0 | 0
21 | COc1cc2nccc(Oc3ccc(NC(=O)NC4CC4)c(Cl)c3)c2cc1C(N)=O [Lenvatinib] | 3.9 | 0.9
22 | N#Cc1ccc(C(c2ccc(C#N)cc2)n2cncn2)cc1 [Letrozole] | 0 | 0
23 | Cc1ccc(F)c(NC(=O)Nc2ccc(-c3cccc4[nH]nc(N)c34)cc2)c1 [Linifanib] | 0 | 0
24 | C[C@]1(O)C[C@@H](c2nc(-c3ccc4ccc(-c5ccccc5)nc4c3)c3c(N)nccn32)C1 [Linsitinib] | 3.6 | 1
25 | CCNCCS(=O)(=O)NC[C@@]1(c2ccccc2)SC(NC(=O)C(C)(C)C)=NN1C(=O)C(C)(C)C [Litronesib] | 17.3 | 13
26 | Nc1nc(OCc2cc(Br)cs2)c2[nH]cnc2n1 [Lomeguatrib] | 0 | 0
27 | NC(=O)N1CCC(CC(=O)N2CCC([C@H]3c4ncc(Br)cc4CCc4cc(Cl)cc(Br)c43)CC2)CC1 [Lonafarnib] | 0 | 0
28 | Cc1c(F)cc(C(=O)NC2CC2)cc1-c1ccc(C(=O)NCC(C)(C)C)cn1 [Losmapimod] | 0.4 | 1.4
29 | CC[C@H](C)C(=O)O[C@H]1C[C@@H](C)C=C2C=C[C@H](C)[C@H](CC[C@@H]3C[C@@H](O)CC(=O)O3)[C@H]21 [Lovastatin] | 0 | 0
30 | CNC(=O)c1cccc2cc(Oc3ccnc4cc(OCC5(N)CC5)c(OC)cc34)ccc12 [Lucitanib] | 2.9 | 0.9
31 | CCNC(=O)c1noc(-c2cc(C(C)C)c(O)cc2O)c1-c1ccc(CN2CCOCC2)cc1 [Luminespib] | 18.1 | 19.7
32 | O=C(O)CC[C@H]1CC[C@@](c2cc(F)ccc2F)(S(=O)(=O)c2ccc(Cl)cc2)CC1 [MK-0752] | 0.1 | 0
33 | NC1(c2ccc(-c3nc4ccn5c(=O)[nH]nc5c4cc3-c3ccccc3)cc2)CCC1 [MK-2206] | 8.3 | 8.9
34 | O=C(c1cccc(Cl)c1F)N1CCN(Cc2cccc(Nc3nccs3)n2)CC1 [MK-8745] | 5.4 | 2.4
35 | Cn1cc(-c2cnn3c(N)c(Br)c([C@@H]4CCCNC4)nc23)cn1 [MK-8776] | 1.1 | 1.3
36 | Cc1cnc(-c2ccccc2C(C)C)nc1NCc1ccc(-n2ccnn2)cc1 [ML323] | 0.4 | 0
37 | O=C(CCNC(=O)c1ccc(OC(F)(F)F)cc1)N[C@@H]1CCCc2ccccc21 [ML390] | 5.2 | 3
38 | O=C(Nc1cccc(NC(=O)c2cccc(O)c2O)c1)c1cccc(O)c1O [MST-312] | 10 | 9.7

Row | Structure (SMILES) | drug sensitivity score (MDA-MB-453 [1]) | drug sensitivity score (MDA-MB-453 [2])
39 | CNC(=O)[C@@H](NC(=O)[C@H](CC(C)C)[C@H](O)C(=O)NO)C(C)(C)C [Marimastat] | 1.1 | 0.8
40 | Cc1ccc(NC(=O)c2ccc(CN3CCN(C)CC3)cc2)cc1Nc1nc(-c2cccnc2)cs1 [Masitinib] | 3.1 | 1.8
41 | CC(=O)O[C@]1(C(C)=O)CC[C@H]2[C@@H]3C=C(C)C4=CC(=O)CC[C@]4(C)[C@H]3CC[C@@]21C [Megestrol acetate] | 2.2 | 0
42 | CCN(CC)CCCC(C)Nc1c2ccc(Cl)cc2nc2ccc(OC)cc12 (centres undefined) [Mepacrine] | 16.2 | 14.7
43 | S=c1[nH]cnc2nc[nH]c12 [Mercaptopurine] | 10.9 | 0.7
44 | Cc1ccc(C(=O)Nc2ccc(Oc3cc4cnn(C)c4cc3-c3cn[nH]c3)c(F)c2)c(=O)n1-c1ccc(F)cc1 [Merestinib] | 0 | 0
45 | CN(C)C(=N)NC(=N)N [Metformin] | 0 | 0
46 | CN(Cc1cnc2nc(N)nc(N)c2n1)c1ccc(C(=O)N[C@@H](CCC(=O)O)C(=O)O)cc1 [Methotrexate] | 1 | 0
47 | C[C@H]1C[C@@H]2[C@H]([C@@H](O)C[C@@]3(C)[C@H]2CC[C@]3(O)C(=O)CO)[C@@]2(C)C=CC(=O)C=C12 [Methylprednisolone] | 5.2 | 0
48 | CO[C@@H]1[C@H](N(C)C(=O)c2ccccc2)C[C@H]2O[C@]1(C)n1c3ccccc3c3c4c(c5c6ccccc6n2c5c31)C(=O)NC4 [Midostaurin] | 7.3 | 4.8
49 | CNC(=O)c1nn(C)c2c1C(C)(C)Cc1cnc(Nc3ccc(N4CCN(C)CC4)cc3)nc1-2 [Milciclib] | 8.3 | 7.5
50 | CCCCCCCCCCCCCCCCOP(=O)([O-])OCC[N+](C)(C)C [Miltefosine] | 2.7 | 3.9
51 | CO[C@@]12[C@H](COC(N)=O)C3=C(C(=O)C(C)=C(N)C3=O)N1C[C@@H]1N[C@@H]12 [Mitomycin C] | 0 | 0
52 | Clc1ccc(C(c2ccccc2Cl)C(Cl)Cl)cc1 (centres undefined) [Mitotane] | 0.6 | 0
53 | O=C1c2c(O)ccc(O)c2C(=O)c2c(NCCNCCO)ccc(NCCNCCO)c21 [Mitoxantrone] | 4.5 | 5.1
54 | CCS(=O)(=O)Nc1ccc(Oc2ccc(F)cc2F)c(-c2cn(C)c(=O)c3[nH]ccc23)c1 [Mivebresib] | 29.9 | 31.1
55 | Nc1ccccc1NC(=O)c1ccc(CNc2nccc(-c3cccnc3)n2)cc1 [Mocetinostat] | 16 | 17.7
56 | CCNC(=O)C[C@@H]1N=C(c2ccc(Cl)cc2)c2cc(OC)ccc2-n2c(C)nnc21 [Molibresib] | 10 | 9.8
57 | N#CCNC(=O)c1ccc(-c2ccnc(Nc3ccc(N4CCOCC4)cc3)n2)cc1 [Momelotinib] | 4.7 | 2.2
